Measured values taken from ChEMBL document CHEMBL4229350, “Antimicrobial activity and self-assembly behavior of antimicrobial peptide chensinin-1b with lipophilic alkyl tails” (Eur J Med Chem, 2018).
Converted amounts (≈) assume the structure as drawn. The source made the active and inactive calls. The rule behind the calls is not given here. Peptide text beside a SMILES is read from it. * marks the point of attachment. Lauroyl = CCCCCCCCCCCC(=O)*; Octanoyl = CCCCCCCC(=O)*

Tests used:
Lipid bilayer [1] = assay: Induction of membrane permeabilization in calcein loaded LPS/PC/PG large unilamellar vesicles assessed as calcein leakage after 15 mins by fluorescence assay
Lipid bilayer [2] = assay: Induction of membrane permeabilization in calcein loaded PG/CL/PE large unilamellar vesicles assessed as calcein leakage at 6 uM after 15 mins by fluorescence assay relative to control
Lipid bilayer [3] = assay: Induction of membrane permeabilization in calcein loaded PG/CL large unilamellar vesicles assessed as calcein leakage at 6 uM after 15 mins by fluorescence assay relative to control
Lipid bilayer [4] = assay: Induction of membrane permeabilization in calcein loaded PG/CL/PE large unilamellar vesicles assessed as calcein leakage at 3 uM after 10 mins by fluorescence assay relative to control
Lipid bilayer [5] = assay: Induction of membrane permeabilization in calcein loaded PG/CL large unilamellar vesicles assessed as calcein leakage at 3 uM after 10 mins by fluorescence assay relative to control
Escherichia coli [6] = assay: Antimicrobial activity against Escherichia coli AS 1.349 assessed as induction of outer membrane permeabilization by measuring NPN uptake by fluorescence assay; type: functional, organism-based
Staphylococcus aureus [7] = assay: Antimicrobial activity against Staphylococcus aureus AS 1.72 assessed as induction of outer membrane permeabilization by measuring NPN uptake by fluorescence assay; type: functional, organism-based
Escherichia coli [8] = assay: Antimicrobial activity against Escherichia coli AS 1.349 assessed as induction of bacterial cytoplasmic membrane depolarization at 2 times MIC after 6 mins by diSC3-5 dye-based fluorescence assay; type: functional, organism-based
Staphylococcus aureus [9] = assay: Antimicrobial activity against Staphylococcus aureus AS 1.72 assessed as induction of bacterial cytoplasmic membrane depolarization at 2 times MIC after 5 mins by diSC3-5 dye-based fluorescence assay; type: functional, organism-based
[10] = Hemolytic activity against human erythrocytes after 1 hr; type: ADME, cell-based, Erythrocyte
MCF7 = assay: Cytotoxicity against human MCF7 cells assessed as reduction in cell viability after 1 hr by MTT assay; type: functional, cell-based; conditions: MCF7, 1 h
A-375 = assay: Cytotoxicity against human A375 cells assessed as reduction in cell viability after 1 hr by MTT assay; type: functional, cell-based; conditions: A-375, 1 h
HeLa = assay: Cytotoxicity against human HeLa cells assessed as reduction in cell viability after 1 hr by MTT assay; type: functional, cell-based
Enterococcus faecalis = assay: Antimicrobial activity against Enterococcus faecalis CGMCC 1.595 after 18 hrs by micro dilution method; type: functional; conditions: CGMCC 1.595, 18 h
Enterococcus faecium = assay: Antimicrobial activity against Enterococcus faecium CGMCC 1.2334 after 18 hrs by micro dilution method; type: functional; conditions: CGMCC 1.2334, 18 h
Lactococcus lactis = assay: Antimicrobial activity against Streptococcus lactis AS 1.1690 after 18 hrs by micro dilution method; type: functional; conditions: AS 1.1690, 18 h
Bacillus cereus = assay: Antimicrobial activity against Bacillus cereus AS 1.126 after 18 hrs by micro dilution method; type: functional; conditions: AS 1.126, 18 h
Staphylococcus aureus [11] = assay: Antimicrobial activity against Staphylococcus aureus AS 1.72 after 18 hrs by micro dilution method; type: functional; conditions: AS 1.72, 18 h
Pseudomonas aeruginosa = assay: Antimicrobial activity against Pseudomonas aeruginosa CGMCC 1.860 after 18 hrs by micro dilution method; type: functional; conditions: CGMCC 1.860, 18 h
Escherichia coli [12] = assay: Antimicrobial activity against Escherichia coli AS 1.349 after 18 hrs by micro dilution method; type: functional; conditions: AS 1.349, 18 h
Lipid bilayer [13] = assay: Induction of membrane permeabilization in calcein loaded LPS/PC/PG large unilamellar vesicles assessed as calcein leakage at 50 uM after 15 mins by fluorescence assay relative to control
Lipid bilayer [14] = assay: Induction of membrane permeabilization in calcein loaded PC/cholesterol large unilamellar vesicles assessed as calcein leakage at 50 uM after 10 mins by fluorescence assay relative to control
Lipid bilayer [15] = assay: Induction of membrane permeabilization in PC/cholesterol large unilamellar vesicles assessed as blue shift by Tryptophan fluorescence spectroscopy
Lipid bilayer [16] = assay: Induction of membrane permeabilization in PG/CL/PE large unilamellar vesicles assessed as blue shift at compound to lipid ratio of 10 by Tryptophan fluorescence spectroscopy
Lipid bilayer [17] = assay: Induction of membrane permeabilization in PG/CL large unilamellar vesicles assessed as blue shift at compound to lipid ratio of 60 by Tryptophan fluorescence spectroscopy
U-937 [18] = assay: Antiinflammatory activity in human U937 cells assessed as inhibition of LPS-induced TNF-alpha production after 24 hrs by ELISA; type: functional, cell-based
U-937 [19] = assay: Antiinflammatory activity in human U937 cells assessed as inhibition of LPS-induced IL-6 production after 24 hrs by ELISA; type: functional, cell-based
U-937 [20] = assay: Antiinflammatory activity in human U937 cells assessed as inhibition of LPS-induced TNF-alpha production at 12.6 uM after 24 hrs by ELISA relative to control; type: functional; conditions: U-937, 24 h
U-937 [21] = assay: Antiinflammatory activity in human U937 cells assessed as inhibition of LPS-induced TNF-alpha production at 6.25 uM after 24 hrs by ELISA relative to control; type: functional; conditions: U-937, 24 h
U-937 [22] = assay: Antiinflammatory activity in human U937 cells assessed as inhibition of LPS-induced TNF-alpha production at 3.13 uM after 24 hrs by ELISA relative to control; type: functional; conditions: U-937, 24 h
U-937 [23] = assay: Antiinflammatory activity in human U937 cells assessed as inhibition of LPS-induced IL-6 production at 12.6 uM after 24 hrs by ELISA relative to control; type: functional; conditions: U-937, 24 h
U-937 [24] = assay: Antiinflammatory activity in human U937 cells assessed as inhibition of LPS-induced IL-6 production at 6.25 uM after 24 hrs by ELISA relative to control; type: functional; conditions: U-937, 24 h
U-937 [25] = assay: Antiinflammatory activity in human U937 cells assessed as inhibition of LPS-induced IL-6 production at 3.13 uM after 24 hrs by ELISA relative to control; type: functional; conditions: U-937, 24 h
[26] = Cytotoxicity against human U937 cells assessed as cell viability at 3.13 to 12.6 uM after 1 hr by MTT assay relative to control; type: cell-based, U-937; conditions: read-out: Activity
Lipopolysaccharide (LPS) [27] = assay: Binding affinity to Escherichia coli 0111:B4 LPS assessed as equilibrium association constant by ITC method
Lipopolysaccharide (LPS) [28] = assay: Binding affinity to Escherichia coli 0111:B4 LPS by ITC method
Lipopolysaccharide (LPS) [29] = assay: Induction of LPS micelles disaggergation assessed as abundant particle size formation at 2 uM by DLS method
[30] = Self-assembly property assessed as diameter of monodispersed micelles at 1 mg/ml at pH 7 by TEM analysis; type: physicochemical
[31] = Self-assembly property assessed as diameter of monodispersed micelles at 1 mg/ml at pH 7 readjusted from pH 2 by TEM analysis; type: physicochemical
Escherichia coli [32] = assay: Antimicrobial activity against Escherichia coli AS 1.349 assessed as induction of bacterial cytoplasmic membrane depolarization at 2 times MIC after 5 mins by diSC3-5 dye-based fluorescence assay; type: functional, organism-based
Staphylococcus aureus [33] = assay: Antimicrobial activity against Staphylococcus aureus AS 1.72 assessed as induction of bacterial cytoplasmic membrane depolarization at 2 times MIC after 4 mins by diSC3-5 dye-based fluorescence assay; type: functional, organism-based
Lipopolysaccharide (LPS) [34] = assay: Induction of LPS micelles disaggergation assessed as small particle distribution at 2 uM by DLS method

Activity (Lipid bilayer [1]) | Activity (Lipid bilayer [2]) | Activity (Lipid bilayer [3]) | Activity (Lipid bilayer [4]) | Activity (Lipid bilayer [5]) | MIC (Enterococcus faecalis) | MIC (Enterococcus faecium) | MIC (Lactococcus lactis) | MIC (Bacillus cereus) | MIC (Staphylococcus aureus [11]) | MIC (Pseudomonas aeruginosa) | MIC (Escherichia coli [12]) | Activity (Lipid bilayer [13]) | Activity (Lipid bilayer [14]) | SMILES | Activity (Escherichia coli [6]) | Activity (Staphylococcus aureus [7]) | HC50 at 1 h [10] | IC50 (MCF7) | IC50 (A-375) | IC50 (HeLa) | further results
Dose-dependent effect | 54% | 81% | 42% | 64% | 3.13 µM (≈ 8.53 µg/mL) | 1.56 µM (≈ 4.25 µg/mL) | 3.13 µM (≈ 8.53 µg/mL) | 3.13 µM (≈ 8.53 µg/mL) | 3.13 µM (≈ 8.53 µg/mL) | 1.56 µM (≈ 4.25 µg/mL) | 6.25 µM (≈ 17 µg/mL) | 58% | 20% | CCCCCCCCCCCC(=O)N[C@@H](CO)C(=O)N[C@@H](CCCCN)C(=O)N[C@H](C(=O)N[C@@H](Cc1c[nH]c2ccccc12)C(=O)N[C@@H](CCCNC(=N)N)C(=O)N[C@@H](Cc1cnc[nH]1)C(=O)N[C@@H](Cc1c[nH]c2ccccc12)C(=O)N[C@@H](CCCNC(=N)N)C(=O)N[C@@H](CCCNC(=N)N)C(=O)N[C@@H](Cc1ccccc1)C(=O)N[C@@H](Cc1c[nH]c2ccccc12)C(=O)N[C@@H](Cc1cnc[nH]1)C(=O)N[C@@H](CCCNC(=N)N)C(=O)N[C@@H](C)C(=O)N[C@@H](Cc1cnc[nH]1)C(=O)N[C@@H](CCCNC(=N)N)C(=O)N[C@@H](CCCCN)C(=O)N[C@@H](CC(C)C)C(=O)O)C(C)C (Lauroyl-SKVWRHWRRFWHRAHRKL-OH) | Dose-dependent effect | Dose-dependent effect | > 500 µM | 25.8 µM | 21.2 µM | 20.4 µM | Activity (Escherichia coli [8]): Active; Activity (Staphylococcus aureus [9]): Active; Activity (Lipid bilayer [15]): inactive; Activity (Lipid bilayer [16]): 16 nm; Activity (Lipid bilayer [17]): 20 nm; inhibition (U-937 [18]): Dose-dependent effect; inhibition (U-937 [19]): Dose-dependent effect; inhibition at 12.6 µM (U-937 [20]): 31%; inhibition at 6.25 µM (U-937 [21]): 27%; inhibition at 3.13 µM (U-937 [22]): 26%; inhibition at 12.6 µM (U-937 [23]): 33%; inhibition at 6.25 µM (U-937 [24]): 29%; inhibition at 3.13 µM (U-937 [25]): 17%; viability at 1 h, up to 12.6 µM [26]: 80%; Ka (Lipopolysaccharide (LPS) [27]): 136 mM⁻¹; Kd (Lipopolysaccharide (LPS) [28]): 7.35 µM; Activity (Lipopolysaccharide (LPS) [29]): 350 nm; Activity [30]: 66 nm; Activity [31]: 108 nm
Dose-dependent effect | 92% | 95% | 66% | 88% | 1.56 µM (≈ 4.16 µg/mL) | 1.56 µM (≈ 4.16 µg/mL) | 1.56 µM (≈ 4.16 µg/mL) | 1.56 µM (≈ 4.16 µg/mL) | 3.13 µM (≈ 8.35 µg/mL) | 1.56 µM (≈ 4.16 µg/mL) | 3.13 µM (≈ 8.35 µg/mL) | 73% | 20% | CCCCCCCC(=O)N[C@@H](CO)C(=O)N[C@@H](CCCCN)C(=O)N[C@H](C(=O)N[C@@H](Cc1c[nH]c2ccccc12)C(=O)N[C@@H](CCCNC(=N)N)C(=O)N[C@@H](Cc1cnc[nH]1)C(=O)N[C@@H](Cc1c[nH]c2ccccc12)C(=O)N[C@@H](CCCNC(=N)N)C(=O)N[C@@H](CCCNC(=N)N)C(=O)N[C@@H](Cc1ccccc1)C(=O)N[C@@H](Cc1c[nH]c2ccccc12)C(=O)N[C@@H](Cc1cnc[nH]1)C(=O)N[C@@H](CCCNC(=N)N)C(=O)N[C@@H](C)C(=O)N[C@@H](Cc1cnc[nH]1)C(=O)N[C@@H](CCCNC(=N)N)C(=O)N[C@@H](CCCCN)C(=O)N[C@@H](CC(C)C)C(=O)O)C(C)C (Octanoyl-SKVWRHWRRFWHRAHRKL-OH) | Dose-dependent effect | Dose-dependent effect | > 500 µM | 34.9 µM | 51 µM | 23.9 µM | Activity (Escherichia coli [32]): Active; Activity (Staphylococcus aureus [33]): Active; Activity (Lipid bilayer [15]): inactive; Activity (Lipid bilayer [16]): 16 nm; Activity (Lipid bilayer [17]): 24 nm; inhibition (U-937 [18]): Dose-dependent effect; inhibition (U-937 [19]): Dose-dependent effect; inhibition at 12.6 µM (U-937 [20]): 30%; inhibition at 6.25 µM (U-937 [21]): 28%; inhibition at 3.13 µM (U-937 [22]): 24%; inhibition at 12.6 µM (U-937 [23]): 24%; inhibition at 6.25 µM (U-937 [24]): 8%; inhibition at 3.13 µM (U-937 [25]): 7%; viability at 1 h, up to 12.6 µM [26]: 80%; Ka (Lipopolysaccharide (LPS) [27]): 92.3 mM⁻¹; Kd (Lipopolysaccharide (LPS) [28]): 10.8 µM; Activity (Lipopolysaccharide (LPS) [29]): 68 nm; Activity (Lipopolysaccharide (LPS) [34]): 400 nm; Activity [30]: 80 nm; Activity [31]: 7 nm
